Assay results reported in PubChem BioAssay (NCI).
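Step 1: Grow cells in 96-well plates. Step 2: Expose to compound for 48 hours at 5 concentrations. Step 3: Interpolate endpoints linearly; if unreached, use highest concentration. TGI is the concentration that stops growth completely.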 Where a SMILES comes first, the peptide text is derived from it. [ ]: non-standard residue; d: D form.

How the values were obtained:
Experiment in all cases: NCI tumour cell line growth inhibition, 48 h
DLD-1 colon = system: DLD-1 colon
P388 leukemia = system: P388 leukemia
P388/ADR leukemia = system: P388/ADR leukemia
SN12K1 renal = system: SN12K1 renal
SNB-78 CNS = system: SNB-78 CNS

## CC(=O)Nc1cccc(N=NN(C)C)c1
DLD-1 colon
  TGI: > 31.6 µM
P388 leukemia
  TGI: > 100 µM
P388/ADR leukemia
  TGI: > 100 µM
SN12K1 renal
  TGI: > 100 µM
SNB-78 CNS
  TGI: > 100 µM

## CC(Oc1ccc(OCC2CCCCC2)cc1)C(=O)NCc1ccco1 (centres undefined)
DLD-1 colon
  TGI: > 100 µM
SNB-78 CNS
  TGI: > 100 µM

## O=C1c2ccccc2N2Oc3ccccc3C12c1ccccc1 (centres undefined)
SNB-78 CNS
  TGI: > 100 µM

## Nc1nc(-c2ccco2)cc(-c2ccc(CO)o2)n1
SNB-78 CNS
  TGI: > 100 µM

## CC(C)C[C@H](NC(=O)[C@H](CC(C)C)NC(=O)[C@@H](Cc1c[nH]c2ccccc12)NC(=O)[C@H](Cc1ccccc1)NC(=O)[C@@H](Cc1c[nH]c2ccccc12)NC(=O)[C@H](CCC(N)=O)NC(=O)[C@H](CCC(N)=O)NC(=O)[C@H]1CCCN1C(=O)[C@@H](N)CCCCN)C(N)=O (H-K[dP]QQ[dW]F[dW]LL-NH2)
DLD-1 colon
  TGI: > 100 µM
P388 leukemia
  TGI: > 100 µM
P388/ADR leukemia
  TGI: > 100 µM
SN12K1 renal
  TGI: > 100 µM
SNB-78 CNS
  TGI: > 100 µM
